The test concerns the target USP30 (Homo sapiens (Human), UniProt Q70CQ3). Briefly: USP30 biochemical IC50 assay (fluorescence polarisation, FP). Particulars: USP30 biochemical FP or FI IC50 assay (table does not say which format per compound); read-out: IC50 range. As to the method:
In Vitro USP30 FP Inhibition Assay
USP30 Biochemical IC50 Assay
Dilution plates were prepared at 21 times the final concentration (2100 μM for a final concentration of 100 μM) in 50% DMSO in a 96-well polypropylene V-bottom plate (Greiner #651201). A typical 8-point dilution series would be 100, 30, 10, 3, 1, 0.3, 0.1, 0.03 μM final. Reactions were performed in duplicate in black 384 well plates (small volume, Greiner 784076) in a final reaction volume of 21 μl. Either 1 μl of 50% DMSO or diluted compound was added to the plate. USP30 was diluted in reaction buffer (40 mM Tris, pH 7.5, 0.005% Tween 20, 0.5 mg/ml BSA, 5 mM beta-mercaptoethanol) to the equivalent of 0.05 μl/well and 10 μl of diluted USP30 was added to the compound. Enzyme and compound were incubated for 30 min at room temp. Reactions were initiated by the addition of 50 nM of TAMRA labelled peptide linked to ubiquitin via an iso-peptide bond as fluorescence polarisation substrate. Reactions were read immediately after addition of substrate and following a 2 hr incubation at room temperature. Readings were performed on a Pherastar Plus (BMG Labtech).
(Fluorescence polarisation rises when a labelled molecule tumbles more slowly, as on binding a larger partner.)

IC50 data for one substance are collected here from patent publication US11066365B2, “1-cyano-pyrrolidine compounds as USP30 inhibitors” (Mission Therapeutics Limited, priority 2015, dated 2021).

pIC50: −log10 of the molar value.

Chain of USP30 (Q70CQ3 57-517): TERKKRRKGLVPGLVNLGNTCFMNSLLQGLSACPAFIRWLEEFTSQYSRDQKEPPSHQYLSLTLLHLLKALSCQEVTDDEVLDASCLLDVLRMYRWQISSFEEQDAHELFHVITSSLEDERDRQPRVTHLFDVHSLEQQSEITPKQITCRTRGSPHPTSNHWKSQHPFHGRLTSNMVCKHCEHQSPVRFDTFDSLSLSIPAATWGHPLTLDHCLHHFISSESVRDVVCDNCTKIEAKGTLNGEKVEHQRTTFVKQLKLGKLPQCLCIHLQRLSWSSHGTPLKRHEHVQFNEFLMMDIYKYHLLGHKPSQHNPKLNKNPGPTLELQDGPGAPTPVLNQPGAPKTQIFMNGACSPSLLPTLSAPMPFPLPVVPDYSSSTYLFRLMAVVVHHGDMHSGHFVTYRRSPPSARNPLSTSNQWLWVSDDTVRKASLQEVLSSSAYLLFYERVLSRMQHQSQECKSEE

For orientation: pIC50 means the negative decadic logarithm of the IC50, by convention in mol/L. On to “rac-(3aR,6aR)-1-(3-phenyl-1H- pyrazole-5- carbonyl)hexahydropyrrolo[3,4- bipyrrole-5(1H)-carbonitrile [Example 52]”, for which the pIC50 was 6.00 to 7.00.
